Tests used:
[1] = biological target: T1, human mGlu2 receptor (Homo sapiens, UniProt Q14416); test: [35S]GTPγS binding assay, mGluR2 negative allosteric modulation; format: biochemical; details: for Emax: maximal % inhibition relative to the control glutamate response (EC80 glutamate), read-out: GTPγS-hmGluR2 anGT Emax; for IC50: membranes from CHO cells transfected with human mGlu2 receptor, glutamate ~EC80 (60 μM), read-out: GTPγS-hmGluR2 anGT pIC50 (converted)
T1 construct: expressed in transfected cells; host or cells: CHO cells (membrane preparation)
Method: Total reaction volume was 200 μl. […] Membrane-bound radioactivity was counted in a Topcount.

[2] = system: rats; test: Reversal of the effect of the mGluR2 PAM JNJ-42153605-induced inhibition of scopolamine-induced hyperlocomotion; format: in vivo, rat; details: Rattus norvegicus; rats; PO, 60 min pretreatment; JNJ-42153605 20 mg/kg i.v. + scopolamine 0.16 mg/kg i.v.; criterion total distance >1500 cm in 30 min; read-out: SCOP JNJ-42153605 ED50
Method: Motor activity was measured in microprocessor-based motor activity arenas (closed gray PVC cylinders with a height of 39 cm and a diameter of 31 cm). Each arena was placed on an infrared LED (8×8 LEDs) lit box (white PVC squared box; 40×40 cm^2; height 12.5 cm. An infrared-sensitive tube camera and a white light source were mounted to the ceiling above the observation chamber to track the animal. […] Noldus, Wageningen, The Netherlands). The intensity of the light within the activity cages (measured in the centre at the level of the floor) ranged between 4 and 8 LUX. The rats were pretreated with test compound or vehicle at 60 min before the start of the activity recordings and placed into individual cages. […] WO2010/130424; Cid et al. J. Med.

T1 sequence (Q14416 19-872): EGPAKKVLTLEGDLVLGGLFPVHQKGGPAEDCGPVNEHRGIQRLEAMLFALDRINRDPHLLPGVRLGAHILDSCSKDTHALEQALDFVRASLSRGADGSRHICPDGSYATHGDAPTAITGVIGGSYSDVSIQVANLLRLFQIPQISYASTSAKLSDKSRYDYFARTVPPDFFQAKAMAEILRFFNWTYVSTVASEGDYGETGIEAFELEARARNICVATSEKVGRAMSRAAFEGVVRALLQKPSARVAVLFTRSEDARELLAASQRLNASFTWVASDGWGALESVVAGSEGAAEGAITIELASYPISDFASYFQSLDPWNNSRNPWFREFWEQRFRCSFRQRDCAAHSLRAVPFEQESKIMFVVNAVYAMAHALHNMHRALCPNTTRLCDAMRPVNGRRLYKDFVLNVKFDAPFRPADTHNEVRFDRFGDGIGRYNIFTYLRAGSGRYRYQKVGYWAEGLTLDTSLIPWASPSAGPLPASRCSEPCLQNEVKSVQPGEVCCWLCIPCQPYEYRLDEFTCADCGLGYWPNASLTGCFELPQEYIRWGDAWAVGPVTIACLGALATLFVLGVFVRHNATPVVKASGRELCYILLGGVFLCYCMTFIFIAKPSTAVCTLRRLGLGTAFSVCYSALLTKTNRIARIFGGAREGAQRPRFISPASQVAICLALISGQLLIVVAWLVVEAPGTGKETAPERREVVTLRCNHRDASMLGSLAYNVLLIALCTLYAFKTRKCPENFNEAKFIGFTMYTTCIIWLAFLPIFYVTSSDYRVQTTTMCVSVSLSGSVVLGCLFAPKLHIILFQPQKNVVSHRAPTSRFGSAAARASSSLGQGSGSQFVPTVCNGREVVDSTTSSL

Structure (SMILES)	Emax [1]	IC50 [1]	ED50 [2]	melting point
Cc1ccncc1-c1cc(-c2cnn3c2C(=O)N(c2ccc(C(F)(F)F)cc2)C[C@@H]3C)no1 [Co. No. 18, (7S)-7-Methyl-3-[5-(4-methyl-3-pyridyl)isoxazol-3-yl]-5-[4-(trifluoromethyl)phenyl]-6,7-dihydropyrazolo[1,5-a]pyrazin-4-one]	109%	2.24 nM	0.51 mg/kg	197.33 °C
Cc1ccncc1-c1cc(-c2cnn3c2C(=O)N(c2ccc(C(F)(F)F)c(Cl)c2)C[C@@H]3C)no1 [Co. No. 20, (7S)-5-[3-chloro-4-(trifluoromethyl)phenyl]-7-methyl-3-[5-(4-methyl-3-pyridyl)isoxazol-3-yl]-6,7-dihydropyrazolo[1,5-a]pyrazin-4-one]	113%	1.41 nM	0.51 mg/kg	149.63 °C
C[C@H]1CN(c2ccc(C(F)(F)F)c(Cl)c2)C(=O)c2c(-c3cc(-c4cncc(F)c4)on3)cnn21 [Co. No. 21, (7S)-5-[3-chloro-4-(trifluoromethyl)phenyl]-3-[5-(5-fluoro-3-pyridyl)isoxazol-3-yl]-7-methyl-6,7-dihydropyrazolo[1,5-a]pyrazin-4-one]	103%	6.61 nM	> 0.63 mg/kg	197.03 °C
Cc1ccncc1-c1cc(-c2cnn3c2C(=O)N(c2ccc(C(F)(F)F)c(C)c2)C[C@@H]3C)no1 [Co. No. 22, (7S)-7-methyl-3-[5-(4-methyl-3-pyridyl)isoxazol-3-yl]-5-[3-methyl-4-(trifluoromethyl)phenyl]-6,7-dihydropyrazolo[1,5-a]pyrazin-4-one]	110%	2.09 nM	> 0.63 mg/kg	171.25 °C
